From ChEMBL document CHEMBL3885861, “Open TG-GATES”

Species on record: Rattus norvegicus
Assay: Open TG-GATES - Regimen: Single
Assay type: toxicity, organism-based, Sprague-Dawley
Set-up: regimen Single, gender Male, age 6 weeks
Details: in vivo, po, 750 mg/kg, route gavage, dose level High; for APTT / Bas / Eos / Fbg / Hb / Ht / Lym / MCH / MCHC / MCV / Mono / Neu / PT / Plat / RBC / Ret / WBC: tissue Blood; for KIDNEY_L / KIDNEY_R / KIDNEY_TOTAL: tissue Kidney; for LIVER: tissue Liver; for A/G / ALP / ALT / AST / BUN / CRE / Ca / Cl / DBIL / GLC / IP / K / LDH / Na / PL / RALB / TBIL / TC / TG / TP / gamma-GTP: tissue Plasma

CN(C/C=C/C#CC(C)(C)C)Cc1cccc2ccccc12 [TERBINAFINE] gave a TERMINAL_BW (3 h) of 226.5 g, an APTT (3 h) of 19.1 s and a Bas (3 h) of 0.4%. The Eos (3 h) was 0.8%, the Fbg (3 h) was 220.4 mg/dL and the Hb (3 h) was 12.9 g/dL. The Ht (3 h) was 38.4%, the Lym (3 h) was 76.8% and the MCH (3 h) was 21.1 pg. The MCHC (3 h) was 33.5%, the MCV (3 h) was 63 fL and the Mono (3 h) was 1.8%. For the same molecule, the Neu (3 h) was 19.8%, the PT (3 h) was 12.3 s and the Plat (3 h) was 120 x10_4/uL. For the same molecule, the RBC (3 h) was 610.2 x10_4/ul, the Ret (3 h) was 7.2% and the WBC (3 h) was 85.9 x10_2/uL. The KIDNEY_L (3 h) was 1 g, the KIDNEY_R (3 h) was 1 g and the KIDNEY_TOTAL (3 h) was 2 g. The LIVER (3 h) was 9.8 g, the A/G (3 h) was 1.7 and the ALP (3 h) was 978.4 IU/L. It also gave an ALT (3 h) of 35.6 IU/L, an AST (3 h) of 69.2 IU/L and a BUN (3 h) of 9.8 mg/dL. It also gave a CRE (3 h) of 0.4 mg/dL, a Ca (3 h) of 10.6 mg/dL and a Cl (3 h) of 103 meq/L. The DBIL (3 h) was 0.08 mg/dL, the GLC (3 h) was 204.6 mg/dL and the IP (3 h) was 9.1 mg/dL. For the same molecule, the K (3 h) was 3.7 meq/L, the LDH (3 h) was 180.8 IU/L and the Na (3 h) was 141.6 meq/L. The PL (3 h) was 128.6 mg/dL, the RALB (3 h) was 3.4 g/dL and the TBIL (3 h) was 0.1 mg/dL. It also gave a TC (3 h) of 76.4 mg/dL, a TG (3 h) of 36 mg/dL and a TP (3 h) of 5.5 g/dL. For the same molecule, the gamma-GTP (3 h) was 1 IU/L, the TERMINAL_BW (6 h) was 226.5 g and the APTT (6 h) was 18 s. For the same molecule, the Bas (6 h) was 0.6%, the Eos (6 h) was 0.8% and the Fbg (6 h) was 217.6 mg/dL. It also gave a Hb (6 h) of 12.8 g/dL, a Ht (6 h) of 37.9% and a Lym (6 h) of 77.6%. The MCH (6 h) was 21.6 pg, the MCHC (6 h) was 33.8% and the MCV (6 h) was 63.8 fL. The Mono (6 h) was 3%, the Neu (6 h) was 18% and the PT (6 h) was 12.2 s. The Plat (6 h) was 124.3 x10_4/uL, the RBC (6 h) was 595 x10_4/ul and the Ret (6 h) was 7.2%. For the same molecule, the WBC (6 h) was 79 x10_2/uL, the KIDNEY_L (6 h) was 1 g and the KIDNEY_R (6 h) was 1 g. For the same molecule, the KIDNEY_TOTAL (6 h) was 2 g, the LIVER (6 h) was 9.7 g and the A/G (6 h) was 1.7. The ALP (6 h) was 823.4 IU/L, the ALT (6 h) was 35.4 IU/L and the AST (6 h) was 70 IU/L. For the same molecule, the BUN (6 h) was 12.4 mg/dL, the CRE (6 h) was 0.4 mg/dL and the Ca (6 h) was 10.5 mg/dL. It also gave a Cl (6 h) of 103.2 meq/L, a DBIL (6 h) of 0.082 mg/dL and a GLC (6 h) of 206.2 mg/dL. It also gave an IP (6 h) of 9.6 mg/dL, a K (6 h) of 3.9 meq/L and an LDH (6 h) of 174.2 IU/L. The Na (6 h) was 141 meq/L, the PL (6 h) was 121.2 mg/dL and the RALB (6 h) was 3.5 g/dL. It also gave a TBIL (6 h) of 0.1 mg/dL, a TC (6 h) of 68.2 mg/dL and a TG (6 h) of 36.6 mg/dL. The TP (6 h) was 5.5 g/dL, the gamma-GTP (6 h) was 0.8 IU/L and the TERMINAL_BW (9 h) was 225.4 g. The APTT (9 h) was 18.8 s, the Bas (9 h) was 0.6% and the Eos (9 h) was 1%. It also gave a Fbg (9 h) of 221.6 mg/dL, a Hb (9 h) of 12.8 g/dL and a Ht (9 h) of 38.2%. For the same molecule, the Lym (9 h) was 73.2%, the MCH (9 h) was 21.3 pg and the MCHC (9 h) was 33.6%. The MCV (9 h) was 63.6 fL, the Mono (9 h) was 2.6% and the Neu (9 h) was 22.6%. The PT (9 h) was 12.3 s, the Plat (9 h) was 114 x10_4/uL and the RBC (9 h) was 601.8 x10_4/ul. For the same molecule, the Ret (9 h) was 6.8%, the WBC (9 h) was 85 x10_2/uL and the KIDNEY_L (9 h) was 1 g. It also gave a KIDNEY_R (9 h) of 1 g, a KIDNEY_TOTAL (9 h) of 2 g and an LIVER (9 h) of 9.3 g. The A/G (9 h) was 1.7, the ALP (9 h) was 1027.6 IU/L and the ALT (9 h) was 32.8 IU/L. For the same molecule, the AST (9 h) was 64.2 IU/L, the BUN (9 h) was 12.2 mg/dL and the CRE (9 h) was 0.4 mg/dL. For the same molecule, the Ca (9 h) was 10 mg/dL, the Cl (9 h) was 103.6 meq/L and the DBIL (9 h) was 0.07 mg/dL. For the same molecule, the GLC (9 h) was 205.6 mg/dL, the IP (9 h) was 10.4 mg/dL and the K (9 h) was 4 meq/L. The LDH (9 h) was 163.2 IU/L, the Na (9 h) was 141.2 meq/L and the PL (9 h) was 112.8 mg/dL. It also gave an RALB (9 h) of 3.4 g/dL, a TBIL (9 h) of 0.1 mg/dL and a TC (9 h) of 57.6 mg/dL. For the same molecule, the TG (9 h) was 24.4 mg/dL, the TP (9 h) was 5.4 g/dL and the gamma-GTP (9 h) was 1 IU/L. The TERMINAL_BW (24 h) was 233.7 g, the APTT (24 h) was 18.6 s and the Bas (24 h) was 0.8%. The Eos (24 h) was 1%, the Fbg (24 h) was 216.6 mg/dL and the Hb (24 h) was 13.1 g/dL. It also gave a Ht (24 h) of 38.5%, a Lym (24 h) of 78.8% and an MCH (24 h) of 21.7 pg. It also gave an MCHC (24 h) of 34%, an MCV (24 h) of 64.1 fL and a Mono (24 h) of 3.4%. The Neu (24 h) was 15.6%, the PT (24 h) was 12.3 s and the Plat (24 h) was 122.8 x10_4/uL. It also gave an RBC (24 h) of 601.6 x10_4/ul, a Ret (24 h) of 6.4% and a WBC (24 h) of 81.1 x10_2/uL. For the same molecule, the KIDNEY_L (24 h) was 1.1 g, the KIDNEY_R (24 h) was 1.1 g and the KIDNEY_TOTAL (24 h) was 2.2 g. For the same molecule, the LIVER (24 h) was 10.8 g, the A/G (24 h) was 1.8 and the ALP (24 h) was 1101 IU/L. It also gave an ALT (24 h) of 51.6 IU/L, an AST (24 h) of 89.4 IU/L and a BUN (24 h) of 13.2 mg/dL. The CRE (24 h) was 0.4 mg/dL, the Ca (24 h) was 10.3 mg/dL and the Cl (24 h) was 103.6 meq/L. For the same molecule, the DBIL (24 h) was 0.076 mg/dL, the GLC (24 h) was 203.4 mg/dL and the IP (24 h) was 8.6 mg/dL. The K (24 h) was 3.7 meq/L, the LDH (24 h) was 203.6 IU/L and the Na (24 h) was 141.6 meq/L. It also gave a PL (24 h) of 106 mg/dL, an RALB (24 h) of 3.6 g/dL and a TBIL (24 h) of 0.1 mg/dL. The TC (24 h) was 57.8 mg/dL, the TG (24 h) was 29.2 mg/dL and the TP (24 h) was 5.5 g/dL. The gamma-GTP (24 h) was 1.8 IU/L.
